Laboratory results: publication PMC8976160 (Drug Design, Development and Therapy, 2022)

Target: T1, human Glx-I enzyme (Homo sapiens, UniProt Q04760)
T1 sequence (Q04760 2-184 limits assumed): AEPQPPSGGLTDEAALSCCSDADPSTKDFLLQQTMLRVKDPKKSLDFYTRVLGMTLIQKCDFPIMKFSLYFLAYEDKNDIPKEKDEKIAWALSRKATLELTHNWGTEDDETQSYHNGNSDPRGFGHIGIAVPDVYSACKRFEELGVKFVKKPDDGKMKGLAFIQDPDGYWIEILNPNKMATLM
Assay: Glx-I inhibitory activity in vitro
Type: biochemical
Conditions: for inhibition at 25 µM: read-out: % Inhibition at 25 μM

IC50 [µM]	inhibition at 25 µM [%]	Compound
0.39 ± 0.03	97.4	NS(=O)(=O)c1ccc(/N=N/c2ccc(O)c(C(=O)O)c2)cc1 [Compound 26, (E)-2-hydroxy-5-((4-sulfamoylphenyl)diazenyl)benzoic acid]
39.1 ± 5.31	46.2	Nc1ccc(/N=N/c2ccc(S(N)(=O)=O)cc2)c2cc(O)ccc12 [Compound 13, (E)-4-((4-amino-7-hydroxynaphthalen-1-yl)diazenyl)benzenesulfonamide]
